Measured values from patent publication US20150336996A1, “MANGANESE-BASED MAGNETIC RESONANCE CONTRAST AGENTS” (THE GENERAL HOSPITAL CORPORATION, priority 2013, published 2015).

What was measured:
Assay type in all cases: physicochemical
[1] = T1 relaxivity (r1) by inversion recovery on Bruker mq60 Minispec, 1.4 T, 37° C., TRIS buffer pH 7.4; conditions: for r1 (relaxivity of manganese complexes): pH 7.4, 37° C., 1.4 Tesla
Method: (§1) Liquid chromatography-electrospray mass spectrometry (LC-MS) was performed using an Agilent 1100 Series apparatus with an LC/MSD trap and Daly conversion dynode detector with UV detection at 220, 254 and 280 nm. The methods used on this system are as follows: (a) Luna C18 column (100×2 mm); eluent A: H2O/0.1% formic acid, B: MeCN/0.1% formic acid; gradient: 5% B to 95% B over 9 minutes; flow rate 0.8 mL/min (used for characterization of organic compounds), and (b) Kromasil C18 column (250×4.6 mm); eluent C: 95% MeCN/5% 10 mM ammonium acetate, D: 10 mM ammonium acetate; gradient 5% C to 8% C over 14 minutes; flow rate 0.8 ml/min (used for characterization of manganese complexes). Reversed-phase semipreparative purification was performed on a Rainin Dynamax HPLC system with UV detection at 254 nm using a Polaris C18 column. The method used for purification is as follows: The mobile phase A was 50 mM ammonium acetate buffer, pH 6.5 and mobile phase B was a mixture of 5% 50 mM ammonium acetate buffer, pH 6.5/95% MeCN. Starting from 5% B, the fraction of B increased to 8% over 23 minutes. The column was washed with 100% B for 2 minutes and then ramped to 5% B. The system was re-equilibrated at 5% B for 3 minutes. Relaxivity measurements were performed on a Bruker mq60 Minispec at 1.4 T and 37° C. Manganese concentrations were determined using an Agilent 7500a ICP-MS system. All samples were diluted with 0.1% Triton X-100 in 5% nitric acid containing 20 ppb of Lu (as internal standard). The ratio of Mn (54.94)/Lu(174.97) was used to quantify the manganese concentration. A linear calibration curve ranging from 0.1 ppb to 200 ppb was generated daily for the quantification. UV-Vis spectra were recorded on a SpectraMax M2 spectrophotometer using quartz cuvette with a 1 cm path length. Cyclic voltammetry of Mn^IIHBET, Mn^IIEDTA and Mn^IIIHBET was recorded using a Nuvant EZstat pro potentiostat in TRIS buffer (pH=7.4), containing 0.5M KNO3 as supporting electrolyte, at 100 mVs-1 scan rate. Glassy carbon was used as the working electrode, Ag/AgCl served as the reference electrode and Pt wire was used as the auxiliary electrode. The K4FeCN6/K3FeCN6 couple was used as the internal standard.
T1 was measured with an inversion recovery pulse sequence taking 10 inversion times. Relaxivity was determined from the slope of a plot of 1/T1 vs. concentration of in TRIS buffer, pH=7.4 at 37° C. The concentration of manganese in each stock solution was determined using ICP-MS.
All chemicals and solvents were purchased commercially and used without further purification. NMR spectra were recorded on either a 500 MHz or 400 MHz Varian spectrometers. Chemical shifts are reported in δ (ppm). For ^1H and ^13C NMR spectra, the residual solvent peaks were used as internal reference, except for the ^13C NMR of the ligand where tertiary-butanol was used as the internal reference. Liquid chromatography-electrospray mass spectrometry (LC-MS) was performed using an Agilent 1100 Series apparatus with an LC/MSD trap and Daly conversion dynode detector with UV detection at 220, 254 and 280 nm. The methods used on this system are as follows: (a) Luna C18 column (100×2 mm); eluent A: H2O/0.1% formic acid, B: MeCN/0.1% formic acid; gradient: 5% B to 95% B over 9 minutes; flow rate 0.8 mL/min (used for characterization of organic compounds), and (b) Kromasil C18 column (250×4.6 mm); eluent C: 95% MeCN/5% 10 mM ammonium acetate, D: 10 mM ammonium acetate; gradient 5% C to 8% C over 14 minutes; flow rate 0.8 ml/min (used for characterization of manganese complexes). Reversed-phase semipreparative purification was performed on the Rainin Dynamax HPLC system with UV detection at 254 nm using a Polaris C18 column. The method used for purification is as follows: The mobile phase A was 50 mM ammonium acetate buffer, pH 6.5 and mobile phase B was a mixture of 5% 50 mM ammonium acetate buffer, pH 6.5/95% MeCN. Starting from 5% B, the fraction of B increased to 8% over 23 minutes. […]

[2] = UV spectrum as a function of pH (phenol deprotonation pKa); conditions: fit of UV absorbance vs pH
Method: To probe the speciation of the manganese complexes in solution, pH titrations of 1:1 Mn^2+:ligand were performed using a 1 N NaOH under N2 atmosphere (FIG. 21).
To determine the species that exists in these two pH ranges the UV spectrum as a function of pH was monitored (see FIGS. 22-24).

[3] = Cyclic voltammetry of the Mn(III)/Mn(II) redox couple; conditions: for Half-cell potential vs. normal hydrogen electrode (NHE): pH 7.4, vs. NHE
Method: Potentials are vs. K4Fe(CN)6/K3Fe(CN)6; and in (b), a Cottrell plot of the Mn^2+/Mn^3+ couple—ia, (decreasing line) and ic (increasing line) vs. √v, where v=scan rate.
as §1

[4] = Kinetics of reduction of Mn^III-HBET by glutathione; conditions: 37° C., pH 7.4; first-order in both [GSH] and [Mn^III-HBET]
Method: A series of kinetic experiments were conducted at 37° C. (pH 7.4) to determine the empirical rate law for the reduction of Mn^III-HBET by glutathione. […] This feature allowed us to easily monitor the reduction of Mn^III-HBET over time. We measured initial reaction rates at three different glutathione concentrations (5 mM, 10 mM and 20 mM). For each glutathione concentration, the reaction was performed at four different initial concentrations of M^III-HBET (0.3 mM, 0.4 mM, 0.5 mM and 0.6 mM). Based on these experiments, we determined that the reaction was first-order in both [GSH] and [Mn^III-HBET] with an overall second-order rate constant of (3.8±0.3)×10^−1 M^−1 s^−1.
This series of kinetic experiments were conducted at 37° C. (pH 7.4) to determine the empirical rate law for the reduction of Mn^III-HBET by glutathione. […] Initial reaction rates were measured at a three different glutathione concentrations (5 mM, 10 mM and 20 mM). […]
Here, the observed rate constant (kobs) is simply the product of the actual rate constant (k) and [GSH], t is time, and the subscripts ‘t’ and ‘o’ refer to the concentration at time T or the initial concentration, respectively. […] Based on these experiments, we determined that the reaction was first-order in both [GSH] and [Mn^III-HBET] with an overall second-order rate constant of (3.8±0.3)×10^−1 M^−1 s^−1.

[5] = Stability of manganese complexes in buffers
Method: The stability of the manganese complexes were measured in different buffers using concentrations similar to those found in the blood plasma (1 mM phosphate buffer, 25 mM sodium bicarbonate buffer and 0.1 mM citrate buffer). A solution, 0.5 mM, of the manganese complex was incubated in the respective buffers at 37° C. (pH=7.4) and the species were then quantified on the LC-MS using the method as described earlier. The manganese complexes (0.5 mM) were also treated with EDTA (0.5 mM) in TRIS buffer (pH=7.4) and incubated at 37° C. for 1 hour. The species were then quantified on the LC-MS using the method as described earlier.

[6] = Relaxivity at different field strengths in pH 7.4 HEPES buffer; conditions: 37° C.
Method: The relaxivities of the compounds for Formulas (XI) and (XII) were determined at different field strengths at 37° C. in pH 7.4 HEPES buffer. The relaxivity was obtained from the slope of a plot of 1/T1 vs. [Mn] for different Mn concentrations. Since Formula (XI) contains 6 Mn per molecule, the ionic (per Mn) and molecular (per molecule) relaxivities are given below.

[7] = Stability of solutions at room temperature
Method: 40 binds Mn^II in a 1:1 ratio. This complex was prepared and characterized in situ. Mn^II was carefully titrated to 40 and Mn:40 stoichiometry was monitored by LC-MS or T2-relaxometry as describe above. […] 433.1.

Question: For O=C([O-])CN(CC(=O)[O-])C1CCCCC1N(CC(=O)[O-])Cc1ccccc1[O-].[Mn+2].[Na+].[Na+] (racemic) [Compound 20, Na2[Mn^IIcycHBET]], which “r1 (relaxivity of manganese complexes)” value [1] is on record?
Answer: 3.26 mM⁻¹ s⁻¹

Question: What about the “pKa for ionization of the phenol” value [2] of the same molecule?
Answer: 7.95

Question: What does the source list for O=C([O-])CN(CC(=O)[O-])C1CCCCC1N(CC(=O)[O-])Cc1ccccc1[O-].[Mn+3].[Na+] (racemic) [Compound 21, Na[Mn^IIIcycHBET]]?
Answer: r1 (relaxivity of manganese complexes) [1]: 1.56 mM⁻¹ s⁻¹; Half-cell potential vs. normal hydrogen electrode (NHE) [3]: 365 mV

Question: With O=C([O-])CN(CC(=O)[O-])C1CCCCC1N(CC(=O)[O-])Cc1cc([N+](=O)[O-])ccc1[O-].[Mn+2].[Na+].[Na+] (racemic) [Compound 30, Na2[Mn^IIcycHBET-NO2)]] as the molecule, how does the “r1 (relaxivity of manganese complexes)” value [1] read?
Answer: 2.30 mM⁻¹ s⁻¹

Question: With O=C([O-])CN(CC(=O)[O-])C1CCCCC1N(CC(=O)[O-])Cc1cc([N+](=O)[O-])ccc1[O-].[Mn+3].[Na+] (racemic) [Compound 31, Na[Mn^IIIcycHBET-NO2]] as the molecule, how does the “Half-cell potential vs. normal hydrogen electrode (NHE)” value [3] read?
Answer: 488 mV

Question: With O=C([O-])CN(CCN(CC(=O)[O-])Cc1ccccc1[O-])CC(=O)[O-].[Mn+3].[Na+] [Compound 5, Na[Mn^IIIHBET]] as the molecule, how does the T1 relaxivities ([1]; 1.4 T, Tris buffered saline pH 7.4, 37° C.) read?
Answer: 1.05 mM⁻¹ s⁻¹

Question: And the “r1 (relaxivity of manganese complexes)” value [1]?
Answer: 1.05 mM⁻¹ s⁻¹

Question: And the “overall second-order rate constant of reduction by glutathione” value [4]?
Answer: (3.8±0.3)×10^−1 M^−1 s^−1

Question: What about the “stability in phosphate and carbonate buffers” value [5] of the same molecule?
Answer: stable

Question: With COc1ccc([O-])c(CN(CCN(CC(=O)[O-])CC(=O)[O-])CC(=O)[O-])c1.[Mn+2].[Na+].[Na+] [Compound 9, Na2[Mn^IIHBET-OMe]] as the molecule, how does the “r1 (relaxivity of manganese complexes)” value [1] read?
Answer: 3.11 mM⁻¹ s⁻¹

Question: And the “Half-cell potential vs. normal hydrogen electrode (NHE)” value [3]?
Answer: 344 mV

Question: What about the “pKa for ionization of the phenol” value [2] of the same molecule?
Answer: 7.91

Question: Which “r1 (relaxivity of manganese complexes)” value [1] does the source give for O=C([O-])CN(CCN(CC(=O)[O-])Cc1cc([N+](=O)[O-])ccc1[O-])CC(=O)[O-].[Mn+2].[Na+].[Na+] [Compound 13, Na2[Mn^IIHBET-NO2]] here?
Answer: 2.28 mM⁻¹ s⁻¹

Question: And the “pKa for ionization of the phenol” value [2]?
Answer: 4.84

Question: With O=C([O-])CN(CCN(CC(=O)[O-])Cc1cc([N+](=O)[O-])ccc1[O-])CC(=O)[O-].[Mn+3].[Na+] [Compound 14, Na[Mn^IIIHBET-NO2]] as the molecule, how does the “r1 (relaxivity of manganese complexes)” value [1] read?
Answer: 0.34 mM⁻¹ s⁻¹

Question: And the “Half-cell potential vs. normal hydrogen electrode (NHE)” value [3]?
Answer: 476 mV

Question: Which “half-cell potentials (Mn^II/Mn^III)” value ([3]; irreversible oxidation / quasi-reversible reduction peaks, TRIS buffer pH 7.4) does the source give for O=C([O-])CN(CCN(CC(=O)[O-])Cc1ccccc1[O-])Cc1ccccc1[O-].[Mn+3] [Mn^III-HBED, reference compound] here?
Answer: 0.016 V

Question: For Mn6[N3P3-(TyOH-EDTA)6] [Compound 55], which “Relaxivity r1 at 0.47T (per Mn)” value ([6]; 0.47T, ionic (per Mn)) is on record?
Answer: 9.07 mM⁻¹ s⁻¹

Question: And the “Relaxivity r1 at 0.47T per molecule” value ([6]; 0.47T, molecular (per molecule, 6 Mn))?
Answer: 54.4 mM⁻¹ s⁻¹

Question: What about the “Relaxivity r1 at 1.4T (per Mn)” value ([6]; 1.4T, ionic (per Mn)) of the same molecule?
Answer: 9.28 mM⁻¹ s⁻¹

Question: What about the “Relaxivity r1 at 1.4T per molecule” value ([6]; 1.4T, molecular (per molecule, 6 Mn)) of the same molecule?
Answer: 55.7 mM⁻¹ s⁻¹

Question: What about the “Relaxivity r1 at 4.7T (per Mn)” value ([6]; 4.7T, ionic (per Mn)) of the same molecule?
Answer: 6.54 mM⁻¹ s⁻¹

Question: And the “Relaxivity r1 at 4.7T per molecule” value ([6]; 4.7T, molecular (per molecule, 6 Mn))?
Answer: 39.2 mM⁻¹ s⁻¹

Question: And the “Relaxivity r1 at 9.4T (per Mn)” value ([6]; 9.4T, ionic (per Mn))?
Answer: 4.94 mM⁻¹ s⁻¹

Question: And the “Relaxivity r1 at 9.4T per molecule” value ([6]; 9.4T, molecular (per molecule, 6 Mn))?
Answer: 29.6 mM⁻¹ s⁻¹

Question: And the “Relaxivity r1 at 11.7T (per Mn)” value ([6]; 11.7T, ionic (per Mn))?
Answer: 3.57 mM⁻¹ s⁻¹

Question: And the “Relaxivity r1 at 11.7T per molecule” value ([6]; 11.7T, molecular (per molecule, 6 Mn))?
Answer: 21.4 mM⁻¹ s⁻¹

Question: Which “Relaxivity r1 at 0.47T (per Mn)” value ([6]; 0.47T, ionic (per Mn)) does the source give for Na[Mn(TyOH-EDTA)] [Compound 52] here?
Answer: 3.60 mM⁻¹ s⁻¹

Question: And the “Relaxivity r1 at 1.4T (per Mn)” value ([6]; 1.4T, ionic (per Mn))?
Answer: 2.80 mM⁻¹ s⁻¹

Question: And the “Relaxivity r1 at 9.4T (per Mn)” value ([6]; 9.4T, ionic (per Mn))?
Answer: 3.65 mM⁻¹ s⁻¹

Question: What about the “Relaxivity r1 at 11.7T (per Mn)” value ([6]; 11.7T, ionic (per Mn)) of the same molecule?
Answer: 3.05 mM⁻¹ s⁻¹

Question: What does the source list for [Mn(CyP3A)] [Compound 41]?
Answer: Relaxivities r1 at 1.41T ([1]; 1.41T, 37° C., pH 7.4 Tris buffer): 2.50 mM⁻¹ s⁻¹; stability of solutions [7]: indefinitely stable
